Where no end group is shown, it is not given here. [ ]: non-standard residue; d: D form. TGN = not defined here
Test system: CTNNB1
Assay: In vitro DMD assay: mRNA silencing enhancement by peptide conjugates after siRNA-IV treatment
Assay type: cell-based
Settings: primary mouse hepatocytes, siRNA-IV 125 nM baseline
Protocol: Cryopreserved primary Mouse hepatocytes (Bioreclamation, LLC) were placed into Collagen Type I coated 96-well plates at 25,000 cells per well in serum-containing InVitroGRO CP media (Bioreclamation, LLC) and allowed 5 hours to attach. Media was replaced with InVitroGRO HI media and cells were treated with siRNA-IV at 125 nM [siRNA] for 1 hour. Media was replaced with InVitroGRO HI media and cells were treated for approximately 16 hours with experimental Peptide conjugates at various concentrations to establish a dose-response curve. Peptide conjugates were washed out after 16 hours with InVitroGRO HI media and cells allowed to incubate for an additional 24 hours. Cells were then lysed and mRNA expression of the siRNA target was measured by RT-qPCR (Applied Biosystems Taqman reagents). mRNA silencing activity of each Peptide conjugate was expressed as an enhancement above the baseline activity of 125 nM siRNA-IV alone with respect to the untreated cells and all siRNA target Ct values were normalized to PPIB mRNA for each well (dddCt) and summarized.
The structure of TGN-S-S-peptide is shown below and the activity data is listed in Table 5 (siRNA-IV concentration was kept at […]).

TGN-S-S-SEQ ID NO: 1794 (D) ([dC]G[dL][dF]G[dA][dI][dE][dE][dL][dI][dE][dE]G[dL][dE][dN][dL][dI][dD][dW]G[dN]G; not fully specified (residue 1); also: TGN conjugated via disulfide at Cys1; listed as Homo sapiens)
In vitro dddCt (vs. baseline SCE dose) (Targeted peptide dose 8 nM): −0.09
In vitro dddCt (vs. baseline SCE dose) (Targeted peptide dose 40 nM): −0.8
In vitro dddCt (vs. baseline SCE dose) (Targeted peptide dose 200 nM): −2.22
In vitro dddCt (vs. baseline SCE dose) (Targeted peptide dose 1000 nM): −2.71
In vitro dddCt (vs. baseline SCE dose) (Targeted peptide dose 5000 nM): −2.61

TGN-S-S-SEQ ID NO: 1795 (D) ([dC]G[dF][dF]G[dE][dI][dE][dE][dL][dI][dE][dE]G[dL][dE][dN][dL][dI][dD][dW]G[dN]G; not fully specified (residue 1); also: TGN conjugated via disulfide at Cys1; listed as Homo sapiens)
In vitro dddCt (vs. baseline SCE dose) (Targeted peptide dose 8 nM): −0.1
In vitro dddCt (vs. baseline SCE dose) (Targeted peptide dose 40 nM): −0.33
In vitro dddCt (vs. baseline SCE dose) (Targeted peptide dose 200 nM): −0.71
In vitro dddCt (vs. baseline SCE dose) (Targeted peptide dose 1000 nM): 0.94
In vitro dddCt (vs. baseline SCE dose) (Targeted peptide dose 5000 nM): −0.71

TGN-S-S-SEQ ID NO: 1796 (D) ([dC]G[dL][dW]G[dE][dI][dE][dE][dL][dI][dE][dE]G[dL][dE][dN][dL][dI][dD][dW]G[dN]G; not fully specified (residue 1); also: TGN conjugated via disulfide at Cys1; listed as Homo sapiens)
In vitro dddCt (vs. baseline SCE dose) (Targeted peptide dose 8 nM): 0.05
In vitro dddCt (vs. baseline SCE dose) (Targeted peptide dose 40 nM): −0.56
In vitro dddCt (vs. baseline SCE dose) (Targeted peptide dose 200 nM): −1.13
In vitro dddCt (vs. baseline SCE dose) (Targeted peptide dose 1000 nM): −1.98
In vitro dddCt (vs. baseline SCE dose) (Targeted peptide dose 5000 nM): −1.81

TGN-S-S-SEQ ID NO: 1797 (D) ([dC]G[dL][dF]G[dE][dW][dE][dE][dL][dI][dE][dE]G[dL][dE][dN][dL][dI][dD][dW]G[dN]G; not fully specified (residue 1); also: TGN conjugated via disulfide at Cys1; listed as Homo sapiens)
In vitro dddCt (vs. baseline SCE dose) (Targeted peptide dose 8 nM): 0
In vitro dddCt (vs. baseline SCE dose) (Targeted peptide dose 40 nM): 0.41
In vitro dddCt (vs. baseline SCE dose) (Targeted peptide dose 200 nM): 0.08
In vitro dddCt (vs. baseline SCE dose) (Targeted peptide dose 1000 nM): 0.05
In vitro dddCt (vs. baseline SCE dose) (Targeted peptide dose 5000 nM): 0.24

TGN-S-S-SEQ ID NO: 1798 (D) ([dC]G[dL][dF]G[dE][dF][dE][dE][dL][dI][dE][dE]G[dL][dE][dN][dL][dI][dD][dW]G[dN]G; not fully specified (residue 1); also: TGN conjugated via disulfide at Cys1; listed as Homo sapiens)
In vitro dddCt (vs. baseline SCE dose) (Targeted peptide dose 8 nM): −0.09
In vitro dddCt (vs. baseline SCE dose) (Targeted peptide dose 40 nM): −0.69
In vitro dddCt (vs. baseline SCE dose) (Targeted peptide dose 200 nM): −0.13
In vitro dddCt (vs. baseline SCE dose) (Targeted peptide dose 1000 nM): −0.26
In vitro dddCt (vs. baseline SCE dose) (Targeted peptide dose 5000 nM): −0.18

TGN-S-S-SSEQ ID NO: 1799(D) ([dC]G[dL][dF]G[dE][dI][dE][dE][dL][dI][dE][dE]G[dL][dE][dN][dL][dL][dD][dW]G[dN]G; not fully specified (residue 1); also: TGN conjugated via disulfide at Cys1; listed as Homo sapiens)
In vitro dddCt (vs. baseline SCE dose) (Targeted peptide dose 8 nM): 0.03
In vitro dddCt (vs. baseline SCE dose) (Targeted peptide dose 40 nM): −0.45
In vitro dddCt (vs. baseline SCE dose) (Targeted peptide dose 200 nM): −1.63
In vitro dddCt (vs. baseline SCE dose) (Targeted peptide dose 1000 nM): −2.13
In vitro dddCt (vs. baseline SCE dose) (Targeted peptide dose 5000 nM): −2.22

TGN-S-S-Seq-ID-25 (D) ([dC][dI][dF]G[dA][dI][dA]G[dF][dI][dK][dN][dI][dW][dE]G[dL][dI][dD][dA][dF]; not fully specified (residue 1); also: disulfide-linked to TGN peptide via Cys; listed as Homo sapiens)
In vitro dddCt (vs. baseline SCE dose) (Targeted peptide dose 8 nM): −0.06
In vitro dddCt (vs. baseline SCE dose) (Targeted peptide dose 40 nM): 0.2
In vitro dddCt (vs. baseline SCE dose) (Targeted peptide dose 200 nM): −0.13
In vitro dddCt (vs. baseline SCE dose) (Targeted peptide dose 1000 nM): 0.01
In vitro dddCt (vs. baseline SCE dose) (Targeted peptide dose 5000 nM): −1.72

TGN-S-S-Seq-ID-37 (L) (C(TGN)IFGAIAGFIKNIWKGLIDWWYG; reading uncertain; also: disulfide-linked to TGN peptide via Cys; listed as Homo sapiens)
In vitro dddCt (vs. baseline SCE dose) (Targeted peptide dose 8 nM): 0.02
In vitro dddCt (vs. baseline SCE dose) (Targeted peptide dose 40 nM): 0.14
In vitro dddCt (vs. baseline SCE dose) (Targeted peptide dose 200 nM): −0.01
In vitro dddCt (vs. baseline SCE dose) (Targeted peptide dose 1000 nM): −0.19
In vitro dddCt (vs. baseline SCE dose) (Targeted peptide dose 5000 nM): −0.79

TGN-S-S-Seq-ID-54 (L) (C(TGN)FFGAIWEFIRSILEGLIDGWYGYGRKKRRQRR; reading uncertain; also: disulfide-linked to TGN peptide via Cys; listed as Homo sapiens)
In vitro dddCt (vs. baseline SCE dose) (Targeted peptide dose 8 nM): 0.03
In vitro dddCt (vs. baseline SCE dose) (Targeted peptide dose 40 nM): −0.07
In vitro dddCt (vs. baseline SCE dose) (Targeted peptide dose 200 nM): −0.16
In vitro dddCt (vs. baseline SCE dose) (Targeted peptide dose 1000 nM): −0.03
In vitro dddCt (vs. baseline SCE dose) (Targeted peptide dose 5000 nM): 0.07

TGN-S-S-Seq-ID-55 (L) (C(TGN)GLFHALLHLLHSLWHLLLHAWYGYGRKKRRQRR; reading uncertain; also: disulfide-linked to TGN peptide via Cys; listed as Homo sapiens)
In vitro dddCt (vs. baseline SCE dose) (Targeted peptide dose 8 nM): 0.11
In vitro dddCt (vs. baseline SCE dose) (Targeted peptide dose 40 nM): 0.08
In vitro dddCt (vs. baseline SCE dose) (Targeted peptide dose 200 nM): 0.12
In vitro dddCt (vs. baseline SCE dose) (Targeted peptide dose 1000 nM): 0.05
In vitro dddCt (vs. baseline SCE dose) (Targeted peptide dose 5000 nM): −0.01

TGN-S-S-Seq-ID-56 (L) (C(TGN)GLFHALLHLLHSLWHLLLHAWYGYGHKKHHQHR; reading uncertain; also: disulfide-linked to TGN peptide via Cys; listed as Homo sapiens)
In vitro dddCt (vs. baseline SCE dose) (Targeted peptide dose 8 nM): 0.02
In vitro dddCt (vs. baseline SCE dose) (Targeted peptide dose 40 nM): 0.05
In vitro dddCt (vs. baseline SCE dose) (Targeted peptide dose 200 nM): −0.12
In vitro dddCt (vs. baseline SCE dose) (Targeted peptide dose 1000 nM): −0.08
In vitro dddCt (vs. baseline SCE dose) (Targeted peptide dose 5000 nM): −0.58

TGN-S-S-Seq-ID-57 (L) (C(TGN)GLFGALLELLESLWKGLLEWYGRKKRRQRR; reading uncertain; also: disulfide-linked to TGN peptide via Cys; listed as Homo sapiens)
In vitro dddCt (vs. baseline SCE dose) (Targeted peptide dose 8 nM): 0.1
In vitro dddCt (vs. baseline SCE dose) (Targeted peptide dose 40 nM): 0
In vitro dddCt (vs. baseline SCE dose) (Targeted peptide dose 200 nM): 0.02
In vitro dddCt (vs. baseline SCE dose) (Targeted peptide dose 1000 nM): 0.1
In vitro dddCt (vs. baseline SCE dose) (Targeted peptide dose 5000 nM): 0.09

TGN-S-S-Seq-ID-58 (D) (CRRQRRKKRGYGYWGDILGEWGNEIFGEIAEFLG; not fully specified; TGN disulfide conjugate; D-amino acids; listed as Homo sapiens)
In vitro dddCt (vs. baseline SCE dose) (Targeted peptide dose 8 nM): −0.05
In vitro dddCt (vs. baseline SCE dose) (Targeted peptide dose 40 nM): −0.03
In vitro dddCt (vs. baseline SCE dose) (Targeted peptide dose 200 nM): −0.25
In vitro dddCt (vs. baseline SCE dose) (Targeted peptide dose 1000 nM): −0.26
In vitro dddCt (vs. baseline SCE dose) (Targeted peptide dose 5000 nM): −0.3

TGN-S-S-Seq-ID-61 (D) (CRRQRRKKRGYGYWWDILGKWGNEIFGEIAEFLG; not fully specified; TGN disulfide conjugate; D-amino acids; listed as Homo sapiens)
In vitro dddCt (vs. baseline SCE dose) (Targeted peptide dose 8 nM): 0.13
In vitro dddCt (vs. baseline SCE dose) (Targeted peptide dose 40 nM): 0.08
In vitro dddCt (vs. baseline SCE dose) (Targeted peptide dose 200 nM): 0.01
In vitro dddCt (vs. baseline SCE dose) (Targeted peptide dose 1000 nM): 0
In vitro dddCt (vs. baseline SCE dose) (Targeted peptide dose 5000 nM): −0.55

TGN-S-S-Seq-ID-65 (D) ([dC][dI][dF]G[dA][dI][dA]G[dF][dI][dK][dN][dI][dW][dK]; not fully specified (residue 1); also: disulfide-linked to TGN peptide via Cys; listed as Homo sapiens)
In vitro dddCt (vs. baseline SCE dose) (Targeted peptide dose 8 nM): 0
In vitro dddCt (vs. baseline SCE dose) (Targeted peptide dose 40 nM): −0.73
In vitro dddCt (vs. baseline SCE dose) (Targeted peptide dose 200 nM): −1.48
In vitro dddCt (vs. baseline SCE dose) (Targeted peptide dose 1000 nM): −1.88
In vitro dddCt (vs. baseline SCE dose) (Targeted peptide dose 5000 nM): −2.68

TGN-S-S-Seq-ID-111 (D) ([dC][dF][dF]G[dA][dI][dW][dE][dF][dI][dK][dS][dI][dL][dE]G[dL][dI][dD][dW][dW][dY]G[dY]G[dH][dK][dK][dH][dH][dQ][dH][dR]; not fully specified (residue 1); also: TGN conjugated via disulfide at Cys1; listed as Homo sapiens)
In vitro dddCt (vs. baseline SCE dose) (Targeted peptide dose 5000 nM): −1.4

TGN-S-S-Seq-ID-115 (D) ([dC][dL][dH][dL][dL][dH][dH][dL][dL][dH][dH][dL][dH][dH][dL][dL][dH][dH][dL][dL][dH][dL][dL][dH][dH][dL][dL][dH][dH][dL]GGG[dR][dK][dK][dR][dR][dQ][dR][dR][dR][dP][dP][dQ]; not fully specified (residue 1); also: TGN conjugated via disulfide at Cys1; listed as Homo sapiens)
In vitro dddCt (vs. baseline SCE dose) (Targeted peptide dose 5000 nM): −0.17

TGN-S-SEQ ID NO: 1517 (L) (CGLFGEIEELIEEGLECITLIDWWNG; cysteine pairing not given here; also: TGN-S conjugate; listed as Homo sapiens)
In vitro dddCt (vs. baseline SCE dose) (Targeted peptide dose 25 nM): 0.54
In vitro dddCt (vs. baseline SCE dose) (Targeted peptide dose 125 nM): 0.49
In vitro dddCt (vs. baseline SCE dose) (Targeted peptide dose 625 nM): 0.48
In vitro dddCt (vs. baseline SCE dose) (Targeted peptide dose 3125 nM): 0.33

— patent US10239957B2, “Peptide containing conjugates for dual molecular delivery of oligonucleotides” (Merck Sharp & Dohme Corp., priority 2013, dated 2019)
